This is an account of results in PMC11396751, “Design, Synthesis, and Anticancer Activity of Novel Enmein-Type Diterpenoid Derivatives Targeting the PI3K/Akt/mTOR Signaling Pathway” (Molecules, 2024).

Structures are written as SMILES.

Experiment [1] concerns A549 cells. Put plainly: Cell cycle analysis, PI/RNase, flow cytometry. It is filed as cell-based, human. Conditions: 48 h. How it is done: Cell cycle regulation is an essential process in maintaining normal bodily functions and is often disturbed in cancer cells. The inducement of cell cycle arrest is considered a key avenue for targeted cancer therapy. As a novel enmein-type diterpenoid derivative with remarkable anti-proliferative effects against A549 cells, 7h may have the ability to induce cell cycle arrest. Therefore, A549 cells were treated with 7h, stained with PI/RNase solution, and analyzed for their cell cycle distribution by flow cytometry.
A549 cells were inoculated into 24-well plates and attached via cell adhesion. Then, gradient concentrations (0, 2, 4, and 8 µM) of 7h were added and the cells were co-incubated for 48 h. The cells were cleaned with ice-cold phosphate buffer solution (PBS), digested with trypsin, collected, and prepared as a cell suspension. The cell suspension was treated with PI/RNase staining solution, the data were gathered using a flow cytometer (FACS Calibur, BD, Milpitas, CA, USA), and the cell cycle distribution was analyzed using Flow Jo software. Three attempts were performed for each treatment to eliminate experimental bias.

Experiment [2] concerns A549 cells. Put plainly: ROS content, H2DCFDA staining. It is filed as cell-based, human. Conditions: A549, 2, 4 and 8 µM, 48 h, flow cytometry. The protocol:
Reactive oxygen species (ROS) are secondary metabolites of cells and are closely linked to the regulation of multiple biological activities. Elevated intracellular ROS levels are thought to be a hallmark of apoptosis. To determine whether 7h could affect the ROS content in cancer cells, the A549 cells were treated with different concentrations (0, 2, 4, and 8 µM) of 7h and then stained with H2DCFDA.
Flow cytometry was used to detect changes in intracellular reactive oxygen species content, and the results are shown in Figure 5b,c.
A549 cells were inoculated into 24-well plates and attached via cell adhesion. Then, gradient concentrations (0, 2, 4, and 8 µM) of 7h were added and the cells were co-incubated for 48 h. The cells were cleaned with ice-cold PBS, stained with H2DCFDA, mixed, and incubated in cells for 20 min in darkness at 25 °C. The apoptosis morphology of the cells in each group was observed and photographed using a laser confocal microscope (LSM710, Zeiss, Oberkochen, Germany).
A549 cells were inoculated into 6-well plates and attached via cell adhesion. Then, gradient concentrations (0, 2, 4, and 8 µM) of 7h were added and the cells were co-incubated for 48 h. […] The experimental data were gathered using flow cytometry (FACS Calibur, BD, Milpitas, CA, USA) and analyzed using Flow Jo software. […]

The next experiment concerns L-02 cells. The experiment is described as follows: MTT anti-proliferative assay, normal L-02 cells. The format is cell-based. Conditions: means ± SD of three experiments. How it is done:
(§1) A series of novel enmein-type diterpenoid derivatives, 5a–m, were synthesized by introducing a side chain containing a carbamate moiety at the C-6 position of compound 4. The anticancer activities of 5a–m were tested against three human cancer cell lines and one human normal cell line by MTT assay.
(§2) Human non-small cell lung cancer cell lines (A549), human liver cancer cell lines (HepG2), human breast cancer cell lines (MCF-7), and human normal cell lines (L-02) were purchased from the cell bank of the Chinese Academy of Sciences. All cells were placed in RPMI-1640 medium (added 10% fetal bovine serum, […]) and cultured in an aseptic environment with 5% CO2 at 37 °C.
(§3) All derivatives were evaluated for their anti-proliferative activities against three cancer cell lines and one normal cell line by MTT assay. The cells in the logarithmic growth phase were inoculated into 96-well plates (3 × 10^3 cells/well) and incubated for 48 h in a sterile environment with 5% CO2 at 37 °C to make them attach via cell adhesion; then, the cells were co-incubated with target compounds for 48 h. After that, MTT solution (10 µL/well) was added to the cell culture medium to continue incubation for 4 h, following which the medium was replaced with DMSO (150 µL/well). The absorbance values at 490 nm were determined using an enzyme meter (Safire 2, Tecan, Männedorf, Switzerland) and further converted to half-inhibitory concentration values of these compounds.
In general terms: Formazan colour is commonly taken as a measure of viable cells.

The subject of another experiment is MCF-7 cells. Put plainly: MTT anti-proliferative assay, MCF-7. Conditions: Homo sapiens, MCF7, 48 h, means ± SD of three experiments. It is filed as cell-based. The protocol: as §1, §2, §3
The subject of the next experiment is PI3K/Akt/mTOR pathway. Put plainly: Western blot analysis in A549 cells. It is filed as cell-based, human. Conditions: A549, 2, 4 and 8 µM, 48 h. The protocol:
The PI3K/Akt/mTOR pathway is a critical intracellular signaling pathway during cancer development that regulates cellular processes such as proliferation, differentiation, apoptosis, and autophagy. Inhibiting the aberrant activation of the PI3K/Akt/mTOR signaling pathway is envisaged as a promising anticancer strategy. Based on KEGG analysis and researching the literature, the PI3K/Akt/mTOR signaling pathway is predicted to be one of the major pathways for 7h to exert its anticancer effects. Therefore, a western blot assay was performed to determine the expression of the main proteins, PI3K, p-PI3K, Akt, p-Akt, mTOR, and p-mTOR, to examine whether the anticancer ability of 7h against A549 cells is related to its modulation of the PI3K/Akt/mTOR pathway.
Western blot was used to determine the effect of 7h against the related protein expression in A549 cells. A549 cells were inoculated in 6-well plates and treated with a grdient concentrations (0, 2, 4, and 8 µM) of 7h for 48 h. The cells were collected, lysed in RIPA buffer, and heated at 100 °C for 10 min. The samples were processed via 10% sodium dodecyl sulfate-polyacrylamide gel electrophoresis (10% SDS-PAGE) and then transferred to a poly vinylidene difluoride (PVDE) membrane. […]

`C=C1C(=O)C23C(=O)OC45CCC(C)(C)C6C(OC(=O)CCC(=O)N7CCC(c8noc9cc(F)ccc89)CC7)OCC64C2CCC1C3O5` (single isomer, unassigned; ent-6) [Compound 7h, ent-6β,14α-Dihydroxy-(1,7–1,14)-epoxy-7,15-dioxo-6,20-hemiketal-6,7-seco-16-kaurene-6β-yl 4-(4-(6-fluorobenzo[d]isoxazol-3-yl)piperidin-1-yl)-4-oxobutanoate]: the “cells in G0/G1 phase” value in the experiment with A549 cells [1] (A549, 2 µM) was determined as 62.99%; with A549 cells [1] (A549, 4 µM) it was 71.04%; in the experiment on A549 cells [1] (A549, 8 µM) it was 89.87%. The “cells in G2/M phase” value with A549 cells [1] (A549, 2 µM) is given as 16.21%; with A549 cells [1] (A549, 4 µM) it was 17.63%; in the experiment on A549 cells [1] (A549, 8 µM), 3.93%. Also, the “cells in S phase” value with A549 cells [1] (A549, 2 µM) is listed as 20.80%; with A549 cells [1] (A549, 4 µM), 11.33%; with A549 cells [1] (A549, 8 µM), 6.10%. Besides, the “intracellular ROS content” value with A549 cells [2] is listed as “increased significantly in a dose-dependent manner”. For the same compound, the IC50 with L-02 cells (Homo sapiens, L02, 48 h) was above 100 µM; with L-02 cells (human normal cells, 48 h), above 50 µM; in the experiment on MCF-7 cells, 6.74 ± 1.94 µM. Besides, in the experiment on PI3K/Akt/mTOR pathway, the “Akt protein phosphorylation expression” value is “showed an effect on Akt protein phosphorylation expression”. Besides, in the experiment with PI3K/Akt/mTOR pathway (dose-dependent, vs blank control), the “expression levels of p-PI3K and p-mTOR” value is on record as “effectively reduce”.

By IC50 is commonly meant the point on the concentration scale where inhibition reaches its midpoint. A high value points to lower potency.
